Tests used:
urease enzyme = test: Floating curd experiment in test tubes (Example 3); settings: Lactococci + ur(+) S. thermophilus + urease inhibitor, fermented at 35° C. to pH 4.65, heated at about 66° C. (test tube 3)
Method: Four experiments were conducted in which milk was treated with various bacteria. In experiment 1, only Lactococci bacteria were added. In experiment 2, a blend of Lactococci bacteria and ur(+) S. thermophilus bacteria were added. In experiment 3, a blend of Lactococci bacteria, ur(+) S. thermophilus bacteria, and the urease inhibitor flurofamide were added. In experiment 4, only ur(+) S. thermophilus bacteria were added.
In each experiment, the milk was fermented with the bacteria at 35° C. until the cheese reached a pH of 4.65. A sample of the cheese was placed into a test tube, which was heated at about 66° C. for about 10 minutes. After 10 minutes of heating, a small pipette or thin wire was used to agitate the sample. The samples were held at about 66° C. for another ten minutes, at which time the photograph of the test tubes depicted in FIG. 3, was taken.
Test tube 4 is a positive control that contains ur(+) S. thermophilus, which has urease enzymes that can hydrolyze urea in milk.

ur(−) S. thermophilus = test: Acidification of milk by S. thermophilus with or without sodium formate (Example 2); assay type: cell-based; settings: 10 ppm sodium formate, 2% milk, 40° C., no Lactococci, 350 minutes
Method: Samples of 2% milk taken from the same source were treated with ur(+) S. thermophilus without formate, ur(−) S. thermophilus without formate, and ur(−) S. thermophilus with 10 ppm sodium formate. Lactoccocci bacteria were not used. The milk was maintained at 40° C., and pH measurements were taken for 350 minutes.
FIG. 2 is a graph showing exemplary results from this experiment.

NP(N)(=O)NC(=O)c1ccc(F)cc1 [flurofamide]
floating curd (urease enzyme): no floating curd

O=C[O-].[Na+] [sodium formate]
pH decrease effected by the ur(−) S. thermophilus (ur(−) S. thermophilus): significantly accelerated

Source: patent publication US20150147436A1, “PRODUCTION OF CHEESE WITH S. THERMOPHILUS” (DuPont Nutrition BioSciences ApS, priority 2011, published 2015)
